Results taken from patent publication US12091409B2, “Ether linked triazoles as NRF2 activators” (ASTEX THERAPEUTICS LIMITED, priority 2016, dated 2024).

system: NQO1 specific enzyme activity in BEAS-2B cells (marker for NRF2 activation); assay: BEAS-2B NQO1 MTT Assay; assay type: cell-based; settings: Homo sapiens, BEAS-2B, 48 h, NQO1 specific activity induction, 48 hours with compound
Source text: NAD(P)H:quinone oxidoreductase 1 (NQO1), also called DT diaphorase, is a homodimeric FAD-containing enzyme that catalyzes obligatory NAD(P)H-dependent two-electron reductions of quinones and protects cells against the toxic and neoplastic effects of free radicals and reactive oxygen species arising from one-electron reductions. The transcription of NQO1 is finely regulated by NRF2, and thus NQO1 activity is a good marker for NRF2 activation. On day one, frozen BEAS-2B cells (ATCC) were thawed in a water bath, counted, and re-suspended at a concentration of 250,000 cells/mL. Fifty microliters of cells were plated in 384 well black clear-bottomed plates. Plates were incubated at 37° C., 5% CO2 overnight. On day two, plates were centrifuged and 50 nL of compound or controls were added to the cells. Plates were then incubated at 37° C., 5% CO2 for 48 hours. On day four, medium was aspirated from the plate and crude cell lysates were made by adding 13 uL of 1× Cell Signaling Technologies lysis buffer with 1 Complete, Mini, EDTA-free Protease Inhibitor Tablet (Roche) for each 10 mL of lysis buffer. After lysis plates were incubated for 20 minutes at room temperature. Two microliters of lysate were removed for use in Cell Titer Glo assay (Promega) and MTT cocktail was prepared (Prochaska et. al. 1998) for measurement of NQO1 activity. Fifty microliters of MTT cocktail was added to each well, plate was centrifuged, and analyzed on an Envision plate reader (Perkin Elmer) using Absorbance 570 nm label for 30 minutes. Product formation was measured kinetically and the pEC50 of NQO1 specific activity induction was calculated by plotting the change in absorbance (Delta OD/min) versus the log of compound concentration followed by 3-parameter fitting.
pEC50 is the negative log of the EC50.
EC50s<1 nM (+++++), EC50s 1 nM-10 nM (++++), EC50s 10 nM-100 nM (+++), EC50s 100 nM-1 uM (++), EC50s 1 uM-10 uM (+); EC50s>10 uM (−), or were not determined (ND).

Question: For CC[C@@H]1CN(Cc2cc(C(OCc3cn(CC)nn3)C(C)(C)C(=O)O)ccc2C)S(=O)(=O)c2ccccc2O1 (stereo partly drawn) [Example 10, 3-(3-(((R)-4-ethyl-1,1-dioxido-3,4-dihydro-2H-benzo[b][1,4,5]oxathiazepin-2-yl)methyl)-4-methylphenyl)-3-((1-ethyl-1H-1,2,3-triazol-4-yl)methoxy)-2,2-dimethylpropanoic acid], which EC50 is on record?
Answer: < 1 nM

Question: For CCn1cc(COC(c2ccc(C)c(CN3C[C@@H](C)Oc4ccccc4S3(=O)=O)c2)C(C)(C)C(=O)O)nn1 (stereo partly drawn) [Example 11, 3-((1-Ethyl-1H-1,2,3-triazol-4-yl)methoxy)-2,2-dimethyl-3-(4-methyl-3-(((R)-4-methyl-1,1-dioxido-3,4-dihydro-2H-benzo[b][1,4,5]oxathiazepin-2-yl)methyl)phenyl)propanoic acid], which EC50 is on record?
Answer: 1 to 10 nM

Question: Which EC50 does the source give for CCn1cc(COC(c2ccc(C)c(CN3CC(C)(C)Oc4ccccc4S3(=O)=O)c2)C(C)(C)C(=O)O)nn1 (stereo not drawn) [Example 12, 3-(3-((4,4-dimethyl-1,1-dioxido-3,4-dihydro-2H-benzo[b][1,4,5]oxathiazepin-2-yl)methyl)-4-methylphenyl)-3-((1-ethyl-1H-1,2,3-triazol-4-yl)methoxy)-2,2-dimethylpropanoic acid] here?
Answer: 1 to 10 nM

Question: For Cc1ccc(C(OCc2cn(C3CCCCC3)nn2)C(C)(C)C(=O)O)cc1CN1C[C@@H](C)Oc2ccccc2S1(=O)=O (stereo partly drawn) [Example 17, 3-((1-Cyclohexyl-1H-1,2,3-triazol-4-yl)methoxy)-2,2-dimethyl-3-(4-methyl-3-(((R)-4-methyl-1,1-dioxido-3,4-dihydro-2H-benzo[b][1,4,5]oxathiazepin-2-yl)methyl)phenyl)propanoic acid], which EC50 is on record?
Answer: 1 to 10 nM

Question: Cc1ccc(C(OCc2cn(CC3CCCN(C(=O)OC(C)(C)C)C3)nn2)C(C)(C)C(=O)O)cc1CN1C[C@@H](C)Oc2ccccc2S1(=O)=O (stereo partly drawn) [Example 18, 3-((1-((1-(Tert-butoxycarbonyl)piperidin-3-yl)methyl)-1H-1,2,3-triazol-4-yl)methoxy)-2,2-dimethyl-3-(4-methyl-3-(((R)-4-methyl-1,1-dioxido-3,4-dihydro-2H-benzo[b][1,4,5]oxathiazepin-2-yl)methyl)phenyl)propanoic acid] was tested. Which EC50 did it give?
Answer: 1 to 10 nM

Question: For Cc1ccc(C(OCc2cn(Cc3ccc(CN=[N+]=[N-])cc3)nn2)C(C)(C)C(=O)O)cc1CN1C[C@@H](C)Oc2ccccc2S1(=O)=O (stereo partly drawn) [Example 19, 3-((1-(4-(Azidomethyl)benzyl)-1H-1,2,3-triazol-4-yl)methoxy)-2,2-dimethyl-3-(4-methyl-3-(((R)-4-methyl-1,1-dioxido-3,4-dihydro-2H-benzo[b][1,4,5]oxathiazepin-2-yl)methyl)phenyl)propanoic acid], which EC50 is on record?
Answer: 1 to 10 nM

Question: Which EC50 does the source give for Cc1ccc(C(OCc2cn(CC3CCN(C(=O)OC(C)(C)C)CC3)nn2)C(C)(C)C(=O)O)cc1CN1C[C@@H](C)Oc2ccccc2S1(=O)=O (stereo partly drawn) [Example 20, 3-((1-((1-(Tert-butoxycarbonyl)piperidin-4-yl)methyl)-1H-1,2,3-triazol-4-yl)methoxy)-2,2-dimethyl-3-(4-methyl-3-(((R)-4-methyl-1,1-dioxido-3,4-dihydro-2H-benzo[b][1,4,5]oxathiazepin-2-yl)methyl)phenyl)propanoic acid] here?
Answer: 1 to 10 nM

Question: With CC[C@@H]1CN(Cc2cc(C(OCc3cn(Cc4cccc(C(=O)O)c4)nn3)C(C)(C)C(=O)O)ccc2C)S(=O)(=O)c2ccccc2O1 (stereo partly drawn) [Example 21, 3-((4-((2-Carboxy-1-(3-(((R)-4-ethyl-1,1-dioxido-3,4-dihydro-2H-benzo[b][1,4,5]oxathiazepin-2-yl)methyl)-4-methylphenyl)-2-methylpropoxy)methyl)-1H-1,2,3-triazol-1-yl)methyl)benzoic acid] as the compound, how does the EC50 read?
Answer: 100 to 1000 nM

Question: CC[C@@H]1CN(Cc2cc(C(OCc3cn(Cc4cccc(-c5ccc(C(=O)O)cc5)c4)nn3)C(C)(C)C(=O)O)ccc2C)S(=O)(=O)c2ccccc2O1 (stereo partly drawn) [Example 22, 3′-((4-((2-Carboxy-1-(3-(((R)-4-ethyl-1,1-dioxido-3,4-dihydro-2H-benzo[b][1,4,5]oxathiazepin-2-yl)methyl)-4-methylphenyl)-2-methylpropoxy)methyl)-1H-1,2,3-triazol-1-yl)methyl)-[1,1′-biphenyl]-4-carboxylic acid] was tested. Which EC50 did it give?
Answer: 1 to 10 nM

Question: CC[C@@H]1CN(Cc2cc(C(OCc3cn(Cc4cccc(-c5cccc(C(=O)O)c5)c4)nn3)C(C)(C)C(=O)O)ccc2C)S(=O)(=O)c2ccccc2O1 (stereo partly drawn) [Example 23, 3′-((4-((2-Carboxy-1-(3-(((R)-4-ethyl-1,1-dioxido-3,4-dihydro-2H-benzo[b][1,4,5]oxathiazepin-2-yl)methyl)-4-methylphenyl)-2-methylpropoxy)methyl)-1H-1,2,3-triazol-1-yl)methyl)-[1,1′-biphenyl]-3-carboxylic acid] was tested. Which EC50 did it give?
Answer: 10 to 100 nM

Question: Which EC50 does the source give for CC[C@@H]1CN(Cc2cc(C(OCc3cn(Cc4cccc(-c5ccc(C(=O)O)c(F)c5)c4)nn3)C(C)(C)C(=O)O)ccc2C)S(=O)(=O)c2ccccc2O1 (stereo partly drawn) [Example 24, 3′-((4-((2-Carboxy-1-(3-(((R)-4-ethyl-1,1-dioxido-3,4-dihydro-2H-benzo[b][1,4,5]oxathiazepin-2-yl)methyl)-4-methylphenyl)-2-methylpropoxy)methyl)-1H-1,2,3-triazol-1-yl)methyl)-3-fluoro-[1,1′-biphenyl]-4-carboxylic acid] here?
Answer: 10 to 100 nM

Question: For Cc1ccc(C(OCc2cn(Cc3cccc(-c4ccc(C(=O)O)cc4)c3)nn2)C(C)(C)C(=O)O)cc1CN1C[C@@H](C)Oc2ccccc2S1(=O)=O (stereo partly drawn) [Example 25, 3′-((4-((2-Carboxy-2-methyl-1-(4-methyl-3-(((R)-4-methyl-1,1-dioxido-3,4-dihydro-2H-benzo[b][1,4,5]oxathiazepin-2-yl)methyl)phenyl)propoxy)methyl)-1H-1,2,3-triazol-1-yl)methyl)-[1,1′-biphenyl]-4-carboxylic acid], which EC50 is on record?
Answer: 10 to 100 nM

Question: Which EC50 does the source give for Cc1ccc(C(OCc2cn(Cc3cccc(-c4cccc(C(=O)O)c4)c3)nn2)C(C)(C)C(=O)O)cc1CN1C[C@@H](C)Oc2ccccc2S1(=O)=O (stereo partly drawn) [Example 26, 3′-((4-((2-Carboxy-2-methyl-1-(4-methyl-3-(((R)-4-methyl-1,1-dioxido-3,4-dihydro-2H-benzo[b][1,4,5]oxathiazepin-2-yl)methyl)phenyl)propoxy)methyl)-1H-1,2,3-triazol-1-yl)methyl)-[1,1′-biphenyl]-3-carboxylic acid] here?
Answer: 10 to 100 nM

Question: How did the EC50 turn out when CC[C@@H]1CN(Cc2cc(C(OCc3cn(Cc4cc(C)cc(Cn5cc(CO)nn5)c4)nn3)C(C)(C)C(=O)O)ccc2C)S(=O)(=O)c2ccccc2O1 (stereo partly drawn) [Example 27, 3-(3-(((R)-4-ethyl-1,1-dioxido-3,4-dihydro-2H-benzo[b][1,4,5]oxathiazepin-2-yl)methyl)-4-methylphenyl)-3-((1-(3-((4-(hydroxymethyl)-1H-1,2,3-triazol-1-yl)methyl)-5-methylbenzyl)-1H-1,2,3-triazol-4-yl)methoxy)-2,2-dimethylpropanoic acid] was run?
Answer: 1 to 10 nM

Question: How did the EC50 turn out when CC[C@@H]1CN(Cc2cc(C(OCc3cn(Cc4cccc(Cn5cc(CO)nn5)c4)nn3)C(C)(C)C(=O)O)ccc2C)S(=O)(=O)c2ccccc2O1 (stereo partly drawn) [Example 28, 3-(3-(((R)-4-ethyl-1,1-dioxido-3,4-dihydro-2H-benzo[b][1,4,5]oxathiazepin-2-yl)methyl)-4-methylphenyl)-3-((1-(3-((4-(hydroxymethyl)-1H-1,2,3-triazol-1-yl)methyl)benzyl)-1H-1,2,3-triazol-4-yl)methoxy)-2,2-dimethyl-propanoic acid] was run?
Answer: 10 to 100 nM

Question: With Cc1cc(Cn2cc(CO)nn2)cc(Cn2cc(COC(c3ccc(C)c(CN4C[C@@H](C)Oc5ccccc5S4(=O)=O)c3)C(C)(C)C(=O)O)nn2)c1 (stereo partly drawn) [Example 29, 3-((1-(3-((4-(Hydroxy-methyl)-1H-1,2,3-triazol-1-yl)methyl)-5-methylbenzyl)-1H-1,2,3-triazol-4-yl)methoxy)-2,2-dimethyl-3-(4-methyl-3-(((R)-4-methyl-1,1-dioxido-3,4-dihydro-2H-benzo[b][1,4,5]oxathiazepin-2-yl)methyl)phenyl)propanoic acid] as the compound, how does the EC50 read?
Answer: 10 to 100 nM

Question: With Cc1ccc(C(OCc2cn(CC3CCN(C(=O)C4CCCCC4)CC3)nn2)C(C)(C)C(=O)O)cc1CN1C[C@@H](C)Oc2ccccc2S1(=O)=O (stereo partly drawn) [Example 30, 3-((1-((1-(Cyclohexanecarbonyl)piperidin-4-yl)methyl)-1H-1,2,3-triazol-4-yl)methoxy)-2,2-dimethyl-3-(4-methyl-3-(((R)-4-methyl-1,1-dioxido-3,4-dihydro-2H-benzo[b][1,4,5]oxathiazepin-2-yl)methyl)phenyl)propanoic acid] as the compound, how does the EC50 read?
Answer: 1 to 10 nM

Question: Which EC50 does the source give for Cc1ccc(C(OCc2cn(CC3CCN(C(=O)c4ccccc4)CC3)nn2)C(C)(C)C(=O)O)cc1CN1C[C@@H](C)Oc2ccccc2S1(=O)=O (stereo partly drawn) [Example 31, 3-((1-((1-Benzoylpiperidin-4-yl)methyl)-1H-1,2,3-triazol-4-yl)methoxy)-2,2-dimethyl-3-(4-methyl-3-(((R)-4-methyl-1,1-dioxido-3,4-dihydro-2H-benzo[b][1,4,5]oxathiazepin-2-yl)methyl)phenyl)propanoic acid] here?
Answer: 10 to 100 nM
